# No end group written: not given here.
# Legend:
# [1] = test system: human IgG Fc fragment; experiment: phage ELISA of phage-displayed peptides on human Fc fragment; assay type: binding; settings: peptide displayed on phage; absorbance at 450 nm
# From the text: Three different phage display libraries were subjected to separate panning processes according to the protocol known to one skilled in the art. Various Fc-binding peptides were selected by targeting biotin-conjugated human Fc fragment prepared by random biotinylation of amine residues using EZ-Link™ Sulfo-NHS-SS-Biotin (Thermo Fisher Scientific, Rockford, IL, USA). After three rounds of affinity selection, individual clones were picked for phage Enzyme Linked Immuno-Sorbent Assay (ELISA) in order to evaluate their Fc fragment binding ability.
# (§1) Wells of a 96-well microplate (Nunc, Maxisorp) were either coated with human Fc fragment solution or streptavidin as negative control. The wells were blocked with BSA and contacted with amplified population of each individual clone. Bound phages were detected by the addition of horseradish peroxidase (HRP)-conjugated anti-M13 monoclonal antibodies using the chromogenic substrate (3,3′,5,5′-tetramethylbenzidine (TMB)) solution, and absorbance at 450 nm was measured.
# The experiment was performed in triplicate.
# In order to investigate the contribution of individual amino acid residues of the truncated peptide SEQ ID NO: 2 to the Fc binding, alanine scanning strategy was carried out. […] However, we determined specific positions where alanine substitutions were well tolerated in terms of preserving binding activity. […]
# [2] = test system: human IgG Fc fragment; experiment: competitive phage FLISA with Staphylococcal protein A; assay type: binding
# Method: SpA is known to interact specifically with the region at the CH2-CH3 interface of immunoglobulins. Wells of the black Nunc MaxiSorp microtiter plate were either coated with human IgG Fc fragment or left uncoated (controls). Wells were blocked with BSA and contacted with purified fluorescein-labelled phage clone (the labelling procedure was adapted from the instructions of FITC manufacturer, Sigma-Aldrich). Phage was allowed to compete for the Fc binding with SpA in concentrations 1 μM, 100 nM or 10 nM. After 1 h-incubation at room temperature, the content was discarded and wells were washed with 0.1% PBST and finally filled with PBS. Fluorescence intensities in individual wells were measured at 510 nm upon excitation at 485 nm. The experiment was performed in triplicate.
# [3] = test system: human IgG subclasses (IgG1, IgG2, IgG3 and IgG4) and human intravenous immunoglobulins; experiment: assay akin to ELISA with (peptide)4 SA-HRP complexes on human IgGs; assay type: binding; settings: for binding of biotinylated synthetic peptides to human IgGs: C-terminal linker SEQ ID NO: 181 biotinylated, tetrameric (peptide)4 SA-HRP complexes; for binding compared with the parental peptide SEQ ID NO: 2: biotinylated synthetic peptides, (peptide)4 SA-HRP complexes, human IgGs
# Method: (§2) The binding activity of the described biotinylated synthetic peptides to different immunoglobulins was evaluated using an assay akin to ELISA. Wells were coated with the different subclasses of human IgGs or human intravenous immunoglobulins. All the wells were blocked with BSA. A biotinylated synthetic peptide and horseradish peroxidase (HRP)-conjugated streptavidin (SA-HRP) were mixed in advance at molar ratio of 4:1 to formulate tetrameric (peptide)4 SA-HRP complexes and then the mixtures were added to individual wells. After washing, the (peptide)4 SA-HRP complexes were detected with TMB solution.
# [4] = test system: human IgG Fc fragment and native human IgGs; experiment: pull-down assay with peptide-coated streptavidin paramagnetic beads; settings: versus parent peptide SEQ ID NO: 2
# Method: Selected peptides (SEQ ID NO: 2, SEQ ID NO: 30, and SEQ ID NO: 26) with biotin attached via epsilon-amino group of C-terminal amidated lysine in added linker SEQ ID NO: 181 were synthesized and coupled to streptavidin-coated paramagnetic beads. The same paramagnetic beads without addition of peptide and the same paramagnetic beads coupled with unrelated biotinylated peptide SEQ. ID 185 were used as negative controls. First, the Fc fragment of human antibodies (2 μg) was spiked into PBS and incubated with peptide-coated paramagnetic beads. The beads were then pelleted, washed with 0.1% PBST, and the bound material was eluted with acidic buffer (0.2 M glycine/HCl, pH 2.2). The low pH eluate was immediately neutralized with 1M Tris/HCl, pH 9.1. The eluates obtained from pull-down assay were analyzed by DotBlot assay and Western blotting using polyclonal goat anti-human IgG (H+L) HRP conjugate for detection (results not shown). Equivalent pull-down assay was carried out also from serum free DMEM growth medium spiked with human Fc fragment (2 μg) with peptide SEQ ID NO: 2 (FIG. 11). Additionally, the pull-down assay was also made from intact human sera. The presence of human IgGs in the eluate was confirmed by Coomassie blue staining (FIG. 13) and Western blot analysis (FIG. 12) using HRP-conjugated goat anti-human (H+L) antibodies (BioRad).
# [5] = test system: human IgGs of different subclasses (IgG1, IgG2, IgG3 and IgG4); experiment: phage ELISA on subclasses of native human IgGs; assay type: binding; settings: peptide displayed on phage as P3 fusion
# Method: as §1
# (§3) The binding activity of phage clone displaying the minimized peptide SEQ ID NO: 2, was further evaluated by phage ELISA (as described above) using different subclasses of native human IgGs and different therapeutic monoclonal antibodies. BSA, avidin and SA were used as targets in negative control wells.
# [6] = test system: therapeutic monoclonal antibodies; experiment: phage ELISA on therapeutic monoclonal antibodies; assay type: binding; settings: peptide displayed on phage as P3 fusion
# Method: as §1, §3
# [7] = test system: BSA, avidin and SA; experiment: phage ELISA on negative control targets; assay type: binding; settings: peptide displayed on phage
# Method: as §1, §3
# [8] = test system: IgGs of different species (mouse, donkey, rabbit and sheep); experiment: assay akin to ELISA with peptide SA-HRP complexes on IgGs of animal species; assay type: binding; settings: biotinylated synthetic peptide complexed to SA-HRP, sheep IgG
# Method: as §2
# Additionally, the binding activity of the synthetic peptide SEQ ID NO: 2 to immunoglobulins of different animal species (mouse, rabbit, donkey, and sheep) was evaluated by an assay akin to ELISA essentially as described above. Peptides SEQ ID NO: 184 and SEQ ID NO: 185 represent two control biotin-labelled synthetic peptides with unrelated amino acids sequences.
# [9] = test system: human Fc fragment; experiment: surface plasmon resonance (BIAcore X100), peptide immobilized via streptavidin; assay type: binding; settings: 25° C; Fc 10-160 nM, single cycle
# Method: Interaction between the synthetic biotinylated peptide ligand with amino acid sequence identical to SEQ ID NO: 2 and human Fc fragment was analyzed by surface plasmon resonance (SPR) using BIAcoreX100 (BIAcore) at 25° C. Biotinylated synthetic peptide of the present invention was immobilized to the matrix indirectly through streptavidin. Streptavidin (SA) was immobilized to the surface of CM-5 chip through random amine coupling according to the manufacturer's recommendations to achieve a stable response corresponding to approximately 4000 resonance units. The first cell surface was prior activated and deactivated and used as a reference cell during injections. After successful covalent immobilization of SA to dextran matrix via amino groups, a 120 nM solution (pH 5) of biotinylated synthetic peptide SEQ ID NO: 2 was injected over a sensor chip SA to immobilize the peptide onto the chip. The amount of immobilized peptide was adjusted to the stable response corresponding to approximately 200 RU. Subsequently, solutions of human Fc fragment (the analyte) of various concentrations (10 nM, 20 nM, 40 nM, 80 nM, and 160 nM) in running buffer (0.005% P20 in PBS) were injected at a flow rate of 10 μL/min at through flow cells in a manner known as single cycle. Binding reaction between human Fc fragment and the peptide was recorded. […]
substance,measurement,setting,value
AGNGSYWYQVWF [SEQ ID NO: 1],relative binding of phage clones to human IgG Fc (phage ELISA),[1],strongest binding phage clone
same,binding site on Fc fragment relative to SpA,[2]; inferred from competition with SpA,at least partially overlap
GSYWYDVWF (not fully specified (C-terminus)) [SEQ ID NO: 26],binding of biotinylated synthetic peptides to human IgGs,[3],specifically bound to human IgGs
same,binding compared with the parental peptide SEQ ID NO: 2,[3],significantly increased binding
same,trapping efficiency in pull-down assay,[4],significantly higher than the parent peptide SEQ ID NO: 2
GSYWYEVWF (not fully specified (C-terminus)) [SEQ ID NO: 30],binding of biotinylated synthetic peptides to human IgGs,[3],specifically bound to human IgGs
same,binding compared with the parental peptide SEQ ID NO: 2,[3],significantly increased binding
GSYWYQVWF (H-GSYWYQVWF; not fully specified (C-terminus)) [SEQ ID NO: 2],binding to human IgG subclasses (phage ELISA),[5],strongly bound
same,binding to tested therapeutic monoclonal antibodies (phage ELISA),[6],strongly bound
same,binding to negative controls (phage ELISA),[7],no significant binding
same,binding of biotinylated synthetic peptides to human IgGs,[3],specifically bound to human IgGs
same,binding to IgGs of different animal species,[8],specifically bound
same,binding of human Fc to immobilized peptide (SPR),[9],exhibited binding to human Fc
same,dissociation rate (SPR),[9],slow
SpA: Staphylococcal protein A; cell wall constituent protein derived from Staphylococcal aureus [reference compound],inhibition of binding of FITC-labelled phage clone SEQ ID NO: 1 to immobilized human IgG Fc,"[2]; SpA 1 μM, 100 nM or 10 nM, 1 h room temperature","the higher the concentration of SpA added, the more effectively is binding of the phage clone to human IgG Fc fragment inhibited"
